Laboratory results taken from patent US10206937B2, “Boronic acid derivatives and therapeutic uses thereof” (Qpex Biopharma, Inc., priority 2014, dated 2019).

Experiments:
VIM-1 = molecular target: T1, VIM-1 (Pseudomonas aeruginosa, UniProt A0A0F7KYQ8); assay: biochemical; conditions: cleavage of nitrocefin (200 uM) by VIM-1 supernatant
T1 construct: made in house; host or cells: ECM6711 strain carrying pUCP24-VIM-1 plasmid; culture supernatant used unpurified

NDM-1 [1] = molecular target: T2, NDM-1 (Klebsiella pneumoniae, UniProt C7C422); assay: Inhibition of purified class B carbapenemase NDM-1 (Ki, imipenem substrate); format: biochemical; conditions: NDM-1, substrate imipenem; read-out: Ki NDM-1, Imipenem
[2] = molecular target: T3, purified class A, C and D enzymes (UniProt P0AD64, L31Q/G234S/E235K, species not given); format: biochemical; conditions: read-out: Ki (SHV-12, NCF); purified SHV-12; nitrocefin reporter substrate
T3 construct: Ki (SHV-12, NCF); other: purified SHV-12; nitrocefin reporter substrate
T3 sequence (P0AD64 1-286 L31Q/G234S/E235K): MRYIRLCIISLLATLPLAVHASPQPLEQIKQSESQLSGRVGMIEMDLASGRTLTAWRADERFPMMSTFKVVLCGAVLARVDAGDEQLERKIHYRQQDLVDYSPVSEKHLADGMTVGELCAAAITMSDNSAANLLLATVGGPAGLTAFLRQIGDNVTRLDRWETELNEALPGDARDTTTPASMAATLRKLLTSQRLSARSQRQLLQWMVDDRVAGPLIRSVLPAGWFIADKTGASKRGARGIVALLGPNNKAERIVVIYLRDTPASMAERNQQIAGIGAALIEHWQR

[3] = molecular target: T4, purified class A, C and D enzymes (UniProt Q9F663); format: biochemical; conditions: read-out: Ki (KPC-2, NCF); purified KPC-2; nitrocefin reporter substrate
T4 construct: rows headed: Ki (KPC-2, NCF); other: purified KPC-2; nitrocefin reporter substrate

[4] = molecular target: purified class A, C and D enzymes (Enterobacter cloacae, UniProt P05364); format: biochemical; conditions: purified P99/AmpC of ECL; nitrocefin reporter substrate
[5] = molecular target: purified class A, C and D enzymes (Escherichia coli, UniProt Q9L5C7); format: biochemical; conditions: purified CTX-M-14; nitrocefin reporter substrate
[6] = molecular target: T5, purified class A, C and D enzymes (UniProt Q6XEC0); format: biochemical; conditions: read-out: Ki (OXA-48, NCF); purified OXA-48; nitrocefin reporter substrate
T5 construct: rows headed: Ki (OXA-48, NCF); other: purified OXA-48; nitrocefin reporter substrate

NDM-1 [7] = molecular target: T2, NDM-1; assay: biochemical; conditions: cleavage of imipenem (100 uM) by NDM-1; read-out: Ki, Imipenem

Sequence of purified class A, C and D enzymes (Enterobacter cloacae, UniProt P05364) (P05364 21-381): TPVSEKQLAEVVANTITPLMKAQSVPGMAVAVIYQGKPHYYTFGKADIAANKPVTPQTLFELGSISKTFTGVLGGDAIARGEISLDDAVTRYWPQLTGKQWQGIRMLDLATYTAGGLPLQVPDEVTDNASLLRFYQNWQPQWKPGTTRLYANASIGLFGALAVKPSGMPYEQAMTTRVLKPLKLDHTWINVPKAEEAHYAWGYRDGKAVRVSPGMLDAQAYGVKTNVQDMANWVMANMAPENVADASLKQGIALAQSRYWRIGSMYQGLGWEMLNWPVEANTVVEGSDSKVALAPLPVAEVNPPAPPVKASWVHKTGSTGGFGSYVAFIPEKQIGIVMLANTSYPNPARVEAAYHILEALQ
T2 sequence (C7C422 29-270, looked up, species assumed): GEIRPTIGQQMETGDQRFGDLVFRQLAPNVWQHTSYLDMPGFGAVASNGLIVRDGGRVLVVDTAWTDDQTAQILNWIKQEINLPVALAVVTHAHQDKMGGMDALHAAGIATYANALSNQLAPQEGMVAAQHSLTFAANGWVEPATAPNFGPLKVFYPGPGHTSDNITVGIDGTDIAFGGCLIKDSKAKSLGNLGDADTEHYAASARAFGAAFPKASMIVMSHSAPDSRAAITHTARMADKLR
Sequence of purified class A, C and D enzymes (Escherichia coli, UniProt Q9L5C7) (Q9L5C7 entry or part of it): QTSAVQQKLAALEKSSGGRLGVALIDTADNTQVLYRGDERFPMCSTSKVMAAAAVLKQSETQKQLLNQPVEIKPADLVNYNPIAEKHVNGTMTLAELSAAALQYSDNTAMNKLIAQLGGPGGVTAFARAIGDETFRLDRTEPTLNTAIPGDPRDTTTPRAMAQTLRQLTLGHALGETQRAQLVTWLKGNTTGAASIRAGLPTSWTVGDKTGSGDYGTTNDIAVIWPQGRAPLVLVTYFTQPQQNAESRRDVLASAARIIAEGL

Compound	IC50 (VIM-1) [nM]	Ki (NDM-1 [1]) [nM]	Ki [2] [nM]	Ki [3] [nM]	Ki (P99/AmpC of ECL, NCF) [4]	Ki (CTX-M-14, NCF) [5]	Ki [6] [nM]	Ki (NDM-1 [7]) [nM]
O=C(O)c1c(F)ccc2c1OB(O)[C@@H](SC1CNC1)C2 [Compound 46, (R)-3-(azetidin-3-ylthio)-7-fluoro-2-hydroxy-3,4-dihydro-2H-benzo[e][1,2]oxaborinine-8-carboxylic acid]	≥ 1000	> 100	< 100	100 to 1000	Z (Greater than 1 μM)	X (Less than 0.1 μM)	< 100	> 100
COc1ccc2c(c1C(=O)O)OB(O)[C@@H](Sc1nccs1)C2 [Compound 47, (R)-2-hydroxy-7-methoxy-3-(thiazol-2-ylthio)-3,4-dihydro-2H-benzo[e][1,2]oxaborinine-8-carboxylic acid]	< 1000	10 to 100	< 100	100 to 1000	Y (0.1 μM to 1 μM)	X (Less than 0.1 μM)	< 100	> 100
O=C(O)c1c(F)ccc2c1OB(O)[C@@H](Sc1cnns1)C2 [Compound 48, (3R)-7-fluoro-2-hydroxy-3-(thiadiazol-5-ylsulfanyl)-3,4-dihydro-1,2-benzoxaborinine-8-carboxylic acid]	≥ 1000	> 100	< 100	100 to 1000	Z (Greater than 1 μM)	X (Less than 0.1 μM)	< 100	> 100
NC(=O)CS[C@H]1Cc2ccc(F)c(C(=O)O)c2OB1O [Compound 49, (3R)-3-(2-amino-2-oxo-ethyl)sulfanyl-7-fluoro-2-hydroxy-3,4-dihydro-1,2-benzoxaborinine-8-carboxylic acid]	≥ 1000	> 100	< 100	< 100	Y (0.1 μM to 1 μM)	X (Less than 0.1 μM)	< 100	> 100
Nc1nnc(CCS[C@H]2Cc3ccc(F)c(C(=O)O)c3OB2O)s1 [Compound 50, (3R)-3-[2-(5-amino-1,3,4-thiadiazol-2-yl)ethylsulfanyl]-7-fluoro-2-hydroxy-3,4-dihydro-1,2-benzoxaborinine-8-carboxylic acid]	< 1000	> 100	< 100	< 100	X (Less than 0.1 μM)	X (Less than 0.1 μM)	< 100	> 100
N#CCS[C@H]1Cc2ccc(F)c(C(=O)O)c2OB1O [Compound 51, (3R)-3-(cyanomethylsulfanyl)-7-fluoro-2-hydroxy-3,4-dihydro-1,2-benzoxaborinine-8-carboxylic acid]	≥ 1000	> 100	< 100	< 100	Z (Greater than 1 μM)	X (Less than 0.1 μM)	< 100	> 100
Nc1ncc(S[C@H]2Cc3ccc(F)c(C(=O)O)c3OB2O)s1 [Compound 52, (3R)-3-(2-aminothiazol-5-yl)sulfanyl-7-fluoro-2-hydroxy-3,4-dihydro-1,2-benzoxaborinine-8-carboxylic acid]	< 1000	> 100	< 100	< 100	Y (0.1 μM to 1 μM)	X (Less than 0.1 μM)	< 100	> 100
NC(=O)c1cnc(S[C@H]2Cc3ccc(F)c(C(=O)O)c3OB2O)s1 [Compound 53, (3R)-3-(5-carbamoylthiazol-2-yl)sulfanyl-7-fluoro-2-hydroxy-3,4-dihydro-1,2-benzoxaborinine-8-carboxylic acid]	< 1000	> 100	< 100	< 100	Y (0.1 μM to 1 μM)	X (Less than 0.1 μM)	< 100	> 100
NC(=O)c1csc(S[C@H]2Cc3ccc(F)c(C(=O)O)c3OB2O)n1 [Compound 54, (3R)-3-(4-carbamoylthiazol-2-yl)sulfanyl-7-fluoro-2-hydroxy-3,4-dihydro-1,2-benzoxaborinine-8-carboxylic acid]	< 1000	> 100	< 100	< 100	Y (0.1 μM to 1 μM)	X (Less than 0.1 μM)	< 100	> 100
O=C(O)c1c(F)ccc2c1OB(O)[C@@H](Sc1nnc(C(F)(F)F)s1)C2 [Compound 55, (3R)-7-fluoro-2-hydroxy-3-[[5-(trifluoromethyl)-1,3,4-thiadiazol-2-yl]sulfanyl]-3,4-dihydro-1,2-benzoxaborinine-8-carboxylic acid]	≥ 1000	> 100	100 to 1000	100 to 1000	Y (0.1 μM to 1 μM)	Y (0.1 μM to 1 μM)	< 100	> 100
Cn1ncc(C(N)=O)c1S[C@H]1Cc2ccc(F)c(C(=O)O)c2OB1O [Compound 56, (3R)-3-(4-carbamoyl-2-methyl-pyrazol-3-yl)sulfanyl-7-fluoro-2-hydroxy-3,4-dihydro-1,2-benzoxaborinine-8-carboxylic acid]	≥ 1000	> 100	100 to 1000	100 to 1000	Z (Greater than 1 μM)	Y (0.1 μM to 1 μM)	< 100	> 100
NCc1cnc(S[C@H]2Cc3ccc(F)c(C(=O)O)c3OB2O)s1 [Compound 57, (3R)-3-[5-(aminomethyl)thiazol-2-yl]sulfanyl-7-fluoro-2-hydroxy-3,4-dihydro-1,2-benzoxaborinine-8-carboxylic acid]	< 1000	10 to 100	< 100	100 to 1000	Z (Greater than 1 μM)	X (Less than 0.1 μM)	< 100	10 to 100
O=CNc1cnc(S[C@H]2Cc3ccc(F)c(C(=O)O)c3OB2O)s1 [Compound 58, (3R)-7-fluoro-3-(5-formamidothiazol-2-yl)sulfanyl-2-hydroxy-3,4-dihydro-1,2-benzoxaborinine-8-carboxylic acid]	< 1000	> 100	< 100	100 to 1000	Y (0.1 μM to 1 μM)	X (Less than 0.1 μM)	< 100	> 100
O=C(O)c1c(F)ccc2c1OB(O)[C@@H](Sc1nncs1)C2 [Compound 59, (3R)-7-fluoro-2-hydroxy-3-(1,3,4-thiadiazol-2-ylsulfanyl)-3,4-dihydro-1,2-benzoxaborinine-8-carboxylic acid]	< 1000	> 100	< 100	< 100	Y (0.1 μM to 1 μM)	X (Less than 0.1 μM)	< 100	> 100
COc1ccc2c(c1C(=O)O)OB(O)[C@@H](Sc1cnns1)C2 [Compound 60, (3R)-2-hydroxy-7-methoxy-3-(thiadiazol-5-ylsulfanyl)-3,4-dihydro-1,2-benzoxaborinine-8-carboxylic acid]	< 1000	> 100	< 100	< 100	Z (Greater than 1 μM)	X (Less than 0.1 μM)	< 100	> 100
COc1ccc2c(c1C(=O)O)OB(O)[C@@H](Sc1nc(C(N)=O)cs1)C2 [Compound 61, (3R)-3-(4-carbamoylthiazol-2-yl)sulfanyl-2-hydroxy-7-methoxy-3,4-dihydro-1,2-benzoxaborinine-8-carboxylic acid]	< 1000	> 100	< 100	< 100	Y (0.1 μM to 1 μM)	X (Less than 0.1 μM)	< 100	> 100
COc1ccc2c(c1C(=O)O)OB(O)[C@@H](Sc1nnc(NC(C)=O)s1)C2 [Compound 63, (3R)-3-[(5-acetamido-1,3,4-thiadiazol-2-yl)sulfanyl]-2-hydroxy-7-methoxy-3,4-dihydro-1,2-benzoxaborinine-8-carboxylic acid]	< 1000	> 100	< 100	100 to 1000	X (Less than 0.1 μM)	X (Less than 0.1 μM)	< 100	> 100
